Where a SMILES comes first, the peptide text is derived from it.

The subject of one data set is MRSA. The data set is described as follows: Methicillin Resistant Staphylococcus Aureus (MRSA) assay. Format: cell-based. Conditions: MRSA growth; peptide 10 micrograms per ml; read visually.
The test system of data set [1] is Primary Human endothelial cells (HUVEC). In words: Endothelial cell migration assay. Format: cell-based. Conditions: test peptide 10 micrograms per ml, 22 hours. On the procedure:
Endothelial cell migration is a prerequisite for the process of neo-vascularization or angiogenesis which is crucial for on-site recruitment of blood vessel formation. Primary Human endothelial cells (HUVEC) were seeded in insert chambers with 3 micrometer pore size of multi-transwell plate for 6 hours at 37° C. in Endothelial Cell Basal Medium (EBM) supplemented with 0.1% bovine serum albumin. Thereafter, designated concentration of test peptide—10 micrograms per ml—was added in duplicate wells. The endothelia were allowed to migrate for 22 hours at 37° C., then, migrated cells were fixed and stained with Hoechst 33342 dye. Images of 3 fields per insert were taken and the number of migrated cells per field were quantified using the ImageProPlus software. Data were analyzed for the average number of the migrated cells and standard deviation of six data points for each treatment condition. Active test peptide against HUVEC migration was determined based on 50% inhibition of migrated cells as compared with the control. Statistic p values were computed using the Student's t-test.

The test system of the next data set is Streptococcus pneumoniae. In words: Streptococcus pneumoniae assay. Format: cell-based. Particulars: Streptococcus pneumoniae growth; peptide 10 micrograms per ml; read visually.
Another data set deals with RAW 264.7 cells. The data set is described as follows: Phagocytosis assay (Fluorescein-labeled Escherichia coli). Format: cell-based, mouse. Conditions: test peptide 10 micrograms per ml, flow cytometry.
A further data set deals with TNF alpha. In words: TNF alpha production assay (LPS-stimulated macrophages, ELISA). Format: cell-based. Particulars: human macrophages, test peptide 10 micrograms per ml, lipopolysaccharide 200 ng/ml, overnight. Here is the method:
Human Peripheral Blood Mononuclear Cells (PBMC) were obtained from normal human donors. The macrophages were prepared by adherence of PBMC to the plastic wells of the plates. After 8 days in culture in the presence of recombinant human macrophage-colony stimulating factor at 2 ng/ml, differentiated macrophages were preincubated with test peptide—10 micrograms per ml—for 30 min, followed by in-well stimulation by the addition of lipopolysaccharide at a final concentration of 200 ng/ml. Not stimulated macrophages served as negative background control.
After overnight incubation, supernatants from the control and LPS-stimulated cultures were harvested and assayed for TNF alpha production employing a TNF alpha specific ELISA.

The next data set has as its system Interferon-γ (IFN-γ). The data set is described as follows: Th1/Th2 cytokine profiling assay: IFN-γ. Format: cell-based, Balb/c mice. Particulars: Ovalbumin-restimulated spleen cells; test peptide 10 micrograms per ml; 72 hours. The source says: (§1) The Balb/c mice (originated in 1923, it is a popular strain and is used in many different research disciplines. Also classified as an inbred from the production of 20 or more successive brother-sister matings, the Balb/c mouse is albino and small in size) were immunized on Days 1, 15, and 29 with Ovalbumin (Ovalbumin is the main protein found in egg white, commonly used to stimulate an immunological reaction in test animals) in PBS (5 micrograms/injection). On day 50, spleens of the mice were harvested (3 weeks after last boost with Ovalbumin). Cells were cultured (2×10^5/well in triplicate) and incubated with culture medium or test peptide—10 micrograms per ml—for 30 min. Thereafter, additional Ovalbumin was added to the cells at 10 micrograms/ml for in vitro restimulation of the cells. 72 hours later, cell supernatants were harvested and assayed using the Becton Dickinson Mouse Th1/Th2 Cytokine CBA Kit. This kit can be used to measure Interleukin-2 (IL-2), Interleukin-4 (IL-4), Interleukin-5 (IL-5), Interferon-γ (IFN-γ), and Tumor Necrosis Factor-α (TNF-α) protein levels in a single sample. The kit performance has been optimized for analysis of physiologically relevant concentrations ([…] levels) of specific cytokine proteins in tissue culture supernatants and serum samples.

Data set [2] relates to Tumor Necrosis Factor-α (TNF-α). In words: Th1/Th2 cytokine profiling assay: TNF-α. Format: cell-based, Balb/c mice. Conditions: Ovalbumin-restimulated spleen cells; test peptide 10 micrograms per ml; 72 hours.
Excerpt: as §1

Another data set deals with Interleukin-5 (IL-5). In words: Th1/Th2 cytokine profiling assay: IL-5. Format: cell-based, Balb/c mice. Conditions: Ovalbumin-restimulated spleen cells; test peptide 10 micrograms per ml; 72 hours.
Excerpt: as §1

For the next data set, the system named is Pseudomonas aeruginosa. The data set is described as follows: Pseudomonas aeruginosa assay. Format: cell-based. Particulars: Pseudomonas aeruginosa growth; peptide 10 micrograms per ml; read visually.
The subject of data set [3] is Human Peripheral Blood Mononuclear Cells (PBMC). The data set is described as follows: T cell proliferation assay (PHA, 3H-thymidine). Format: cell-based. Particulars: test peptide 10 micrograms per ml. Here is the method: (§2) Human Peripheral Blood Mononuclear Cells (PBMC) were obtained from normal human donors. The T cell proliferation was induced by stimulation of the cells with the T cell mitogen phytohemagglutinin (PHA), either in the absence (positive proliferation control), or in the presence of test peptide—10 micrograms per ml—to examine their effects on the T cell proliferating response. 10^5/well PBMC were plated in 96-well microtiter plates and assayed in duplicate with the peptide. Cell cultures were incubated at 37° C. for 3 days in a 5% CO2 incubator and were thereafter pulsed with 1 microCi/well ^3H-thymidine for additional 12 hours of culture. At the end of incubation time, the plates were harvested and the cells counted by liquid scintillation for the incorporation of ^3H-thymidine as a measure of T cell proliferation.

In data set [4] the test system is hepatitis B virus (HBV) ayw strain. The data set is described as follows: HBV replication assay in HepG2-2.2.15 cells (TaqMan PCR of secreted HBV DNA). Conditions: test peptide 10 micrograms per ml, six days, HBV DNA by TaqMan PCR. Format: cell-based.
Another data set relates to HIV-1IIIB. The data set is described as follows: HIV-1 antiviral assay (CPE reduction, MTS). Format: cell-based. Particulars: peptide 10 micrograms per ml, 6 days post-infection.
A short description of data set [5]: Cytotoxicity in HCMV assay (CellTiter 96 cell viability). Conditions: human, MRC-5 cells (embryonal lung fibroblasts).
For a further data set, the system named is A549 cells. In words: Propidium iodide cell cycle assay. Format: cell-based, human. Conditions: test peptide 10 micrograms per ml, 24 hours, FACS. The source says:
Human A549 cells (carcinomic human alveolar basal epithelial cells) were utilized in the experiments employing the Propidium iodide cell cycle assay. The eukaryotic cell cycle is a series of events that take place in a cell leading to its replication. The regulation of the cell cycle involves steps crucial to the cell, including detecting and repairing genetic damage, and provision of various checks to prevent uncontrolled cell division. The molecular events that control the cell cycle are ordered and directional; that is, each process occurs in a sequential fashion. The cell cycle consists of four distinct phases: G1 phase, S phase, G2 phase (collectively known as interphase) and M phase. M phase is itself composed of two tightly coupled processes: mitosis, in which the cell's chromosomes are divided between the two daughter cells, and cytokinesis, in which the cell's cytoplasm divides forming distinct cells. Activation of each phase is dependent on the proper progression and completion of the previous one. Cells that have temporarily or reversibly stopped dividing are said to have entered a state of quiescence called Go phase. The relatively brief M phase consists of nuclear division and cytoplasmic division. The first phase within interphase, from the end of the previous M phase till the beginning of DNA synthesis is called G1 (G indicating gap or growth). During this phase the biosynthetic activities of the cell resume at a high rate. This phase is marked by synthesis of various enzymes that are required in S phase, mainly those needed for DNA replication. The ensuing S phase starts when DNA synthesis commences; when it is complete, all of the chromosomes have been replicated. The cell then enters the G2 phase, which lasts until the cell enters mitosis. Significant protein synthesis occurs during this phase, mainly involving the production of microtubules, which are required during the process of mitosis. […]
Propidium iodide is an intercalating agent and a fluorescent molecule that can be used to stain DNA. […] After incubation for 40 min at 37° C., cells were analyzed in the FACS.

Data set [6] is described as follows: Cytotoxicity in HIV-1 assay (MTS cell viability). Particulars: human, CEM-SS cells.
A further data set deals with HUVEC. The data set is described as follows: Endothelial tube formation assay. Format: cell-based, human. Particulars: test peptide 10 micrograms per ml, 20 hours. Here is the method:
The endothelial tube formation assay is based on the ability of endothelial cells to form three-dimensional capillary-like tubular structures when cultured on a gel of basement membrane extract. The endothelial tube formation assay represents a powerful model for studying inhibition and induction of angiogenesis. Pre-labeled HUVEC with Calcein AM were seeded in a 96-well culture plate coated with extracellular metrix (Chemicon international Cat. ECM625) and treated with test peptide—10 micrograms per ml—in full growth medium. […] control was vehicle only. The endothelial cells were allowed to form tubes for 20 hours and were then examined under an inverted fluorescent microscope. Duplicate wells for each treatment were photographed and quantitatively analyzed for an average tubule length using image analysis software ImageProPlus. Raw data were expressed as average tubule lengths in pixels ±standard deviation. Statistic p values were computed using the Student's t-test.

Another data set deals with Interleukin-4 (IL-4). In words: Th1/Th2 cytokine profiling assay: IL-4. Format: cell-based, Balb/c mice. Conditions: Ovalbumin-restimulated spleen cells; test peptide 10 micrograms per ml; 72 hours.
Excerpt: as §1

A short description of data set [7]: Cytotoxicity in HBV assay (dye uptake cell viability). Format: cell-based. Conditions: human, HepG2-2.2.15 cells, test peptide 10 micrograms per ml.
Another data set concerns HCMV strain AD169. In words: HCMV plaque reduction assay in MRC-5 cells. Format: cell-based. Conditions: HCMV AD169 in MRC-5 cells; peptide 10 micrograms per ml; 7-10 days. The source says: Ganciclovir was used as positive control.
The subject of a further data set is Interleukin-2 (IL-2). In words: Th1/Th2 cytokine profiling assay: IL-2. Format: cell-based, Balb/c mice. Particulars: Ovalbumin-restimulated spleen cells; test peptide 10 micrograms per ml; 72 hours.
Excerpt: as §1

The test system of data set [8] is Human Peripheral Blood Mononuclear Cells (PBMC). The data set is described as follows: B cell proliferation assay (SAC plus Interleukin-2, 3H-thymidine). Format: cell-based. Particulars: test peptide 10 micrograms per ml. Here is the method:
as §2, with “The B” for “The T”, “the B” for “the T”, “mitogen Staphylococcus aureus Cowans I (SAC) plus Interleukin-2,” for “mitogen phytohemagglutinin (PHA),”, “cell” for “cell proliferating”, “of B” for “of T”

For `CC(C)C[C@H](NC(=O)CNC(=O)[C@H](CCC(=O)O)NC(=O)CNC(=O)[C@H](C)N)C(=O)N[C@@H](CC(N)=O)C(=O)N[C@@H](CO)C(=O)N[C@@H](CCC(N)=O)C(=O)N[C@@H](Cc1ccccc1)C(=O)N[C@@H](Cc1c[nH]c2ccccc12)C(=O)N[C@@H](CO)C(=O)N[C@@H](CC(C)C)C(=O)N[C@@H](C)C(=O)N[C@@H](C)C(=O)N1CCC[C@H]1C(=O)N[C@@H](CCC(N)=O)C(=O)N[C@@H](CCCNC(=N)N)C(=O)N[C@@H](Cc1ccccc1)C(N)=O` [Neuropeptide AF, Ala-Gly-Glu-Gly-Leu-Asn-Ser-Gln-Phe-Trp-Ser-Leu-Ala-Ala-Pro-Gln-Arg-Phe-NH2] (H-AGEGLNSQFWSLAAPQRF-NH2), the “% inhibition” value with MRSA is listed as 0.0%. The “% inhibition of migration” value in [1] is reported as −4%. In addition, the “% inhibition” value in the data set on Streptococcus pneumoniae turned out to be 0.0%. Also, the “% of control phagocytosis” value in the data set with RAW 264.7 cells is on record as 105.9%. Besides, in the data set on TNF alpha, the “% of LPS induction” value was 104.7%. Besides, the “IFNγ spleen cells; TH1 response (% of control)” value with Interferon-γ (IFN-γ) is on record as 84.8 % of control. In addition, the “TNF-a spleen cells; TH1 response (% of control)” value in data set [2] is reported as 92.1 % of control. Moreover, the “IL-5 spleen cells; TH2 response (% of control)” value with Interleukin-5 (IL-5) is reported as 52.2 % of control. Moreover, the “% inhibition” value in the data set on Pseudomonas aeruginosa is recorded as 0.0%. In data set [3], the “% of PHA induced control” value is on record as 103.8%. Also, in [4], the “% inhibition of HBV replication in HEP G2 cells” value came out at 42.6%. Besides, the “% CPE reduction in HIV-1 infected CEM-SS cells” value (“% CPE reduction” below) in the data set with HIV-1IIIB was 0.0%. The same compound registered a viability at 144 h in data set [5] of 100%. Also, in the data set on A549 cells, the “Cell cycle analysis G0/G1” value came out at 55.5, the “Cell cycle analysis G2/M” value is 10.0 and the “Cell cycle analysis S” value was found to be 34.5. Moreover, the viability at 10 micrograms per ml in data set [6] worked out at 81.6%. Besides, the “% inhibition of tube formation” value in the data set with HUVEC is given as −9%. Further, the “IL-4 spleen cells; TH2 response (% of control)” value with Interleukin-4 (IL-4) is recorded as 0.0 % of control. Also, the viability at 144 h, 10 micrograms per ml in data set [7] was 100%. Also, the “% plaque reduction” value in the data set on HCMV strain AD169 is reported as 6.9%. Further, in the data set with Interleukin-2 (IL-2), the “IL-2 spleen cells (% of control)” value is on record as 0.0 % of control. For the same compound, the “% of SAC/IL2 induced control” value in data set [8] is 105.7%.

Regarding `Cc1cn([C@H]2C[C@H](N=[N+]=[N-])[C@@H](CO)O2)c(=O)[nH]c1=O` [AZT], the “% CPE reduction” value with HIV-1IIIB is recorded as 99%.

As for `CC(C)(C)NC(=O)[C@@H]1CN(Cc2cccnc2)CCN1C[C@@H](O)C[C@@H](Cc1ccccc1)C(=O)N[C@H]1c2ccccc2C[C@H]1O` [Indinavir], the “% CPE reduction” value in the data set with HIV-1IIIB turned out to be 100%.

Values taken from US20100204130A1, “USE OF HUMAN NEUROPEPTIDE AS A THERAPEUTIC AGENT” (priority 2007, published 2010).
